Legend:
Assay type in all cases: in vivo
Spring Wheat “Freya” = assay: Test 1B glasshouse assay, post-emergence herbicidal activity against cereal crops
Winter Wheat “Hereward” = assay: as above; settings: for Post-emergence herbicidal activity against cereal crops, percentage phytotoxicity, Winter Wheat “Hereward”: 14 DAA
Summary of the method: (§1)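 Visual percentage damage (100% = total, 0% = none) read 14 days after application, averaged over two replicates. Plants grown 14 days at 22/16 °C day/night before post-emergence spraying of unformulated compound (IF50/acetone, 0.5% v/v Adigor). Rates usually 60–120 g/ha; cloquintocet-mexyl 50 g/ha co-applied where stated.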

Spring Wheat “Teal” = assay: as above; settings: 14 DAA
Summary of the method: as §1

[1] = system: Spring Barley “Harrington”; assay: as above; settings: for Post-emergence herbicidal activity against cereal crops, percentage phytotoxicity, Spring Barley “Harrington”: 14 DAA
Summary of the method: as §1

Lolium perenne (LOLPE) = assay: Test 1A glasshouse assay, pre-emergence herbicidal activity; settings: 312 h, 250 g/ha, 13 days after application, read-out: Pre-emergence herbicidal activity (% phytotoxicity) LOLPE
[2] = system: Echinochloa crus-galli (ECHCG); assay: as above; settings: 312 h, 250 g/ha, 13 days after application, read-out: Pre-emergence herbicidal activity (% phytotoxicity) ECHCG
[3] = system: Alopecurus myosuroides (ALOMY); assay: as above; settings: 312 h, 250 g/ha, 13 days after application, read-out: Pre-emergence herbicidal activity (% phytotoxicity) ALOMY
Avena fatua (AVEFA) = assay: as above; settings: 312 h, 250 g/ha, 13 days after application, read-out: Pre-emergence herbicidal activity (% phytotoxicity) AVEFA
[4] = herbicide 30 g/ha, cloquintocet-mexyl 50 g/ha
[5] = herbicide 60 g/ha, cloquintocet-mexyl 0 g/ha
[6] = herbicide 60 g/ha, cloquintocet-mexyl 50 g/ha
[7] = 30 g/ha herbicide, 50 g/ha cloquintocet-mexyl
[8] = 45 g/ha herbicide, 50 g/ha cloquintocet-mexyl
[9] = 60 g/ha herbicide, 0 g/ha cloquintocet-mexyl
[10] = 60 g/ha herbicide, 50 g/ha cloquintocet-mexyl
[11] = herbicide 45 g/ha, cloquintocet-mexyl 50 g/ha

Compound | Percentage Phytotoxicity Spring Wheat “Freya” (Spring Wheat “Freya”; [4]) [%] | Percentage Phytotoxicity Spring Wheat “Freya” (Spring Wheat “Freya”; [5]) [%] | Percentage Phytotoxicity Spring Wheat “Freya” (Spring Wheat “Freya”; [6]) [%] | Percentage Phytotoxicity Winter Wheat “Hereward” (Winter Wheat “Hereward”; [4]) [%] | Percentage Phytotoxicity Winter Wheat “Hereward” (Winter Wheat “Hereward”; [5]) [%] | Percentage Phytotoxicity Winter Wheat “Hereward” (Winter Wheat “Hereward”; [6]) [%] | Percentage Phytotoxicity Spring Barley “Harrington” [1, 4] [%] | Percentage Phytotoxicity Spring Barley “Harrington” [1, 5] [%] | Percentage Phytotoxicity Spring Barley “Harrington” [1, 6] [%] | inhibition at 250 g/ha (Lolium perenne (LOLPE)) [%] | inhibition at 250 g/ha [2] [%] | inhibition at 250 g/ha [3] [%] | inhibition at 250 g/ha (Avena fatua (AVEFA)) [%] | further results
Cc1cc(C)c(C2C(=O)CC(CCNC(=O)c3cccc(F)n3)C2=O)c(C)c1 (racemic) [Compound A89] | 13 | 70 | 38 | 10 | 75 | 25 | 13 | 88 | 43 | 100 | 100 | 100 | 100 | Post-emergence herbicidal activity against cereal crops, percentage phytotoxicity, Winter Wheat “Hereward” (Winter Wheat “Hereward”; [7]): 15%; Post-emergence herbicidal activity against cereal crops, percentage phytotoxicity, Winter Wheat “Hereward” (Winter Wheat “Hereward”; [8]): 25%; Post-emergence herbicidal activity against cereal crops, percentage phytotoxicity, Winter Wheat “Hereward” (Winter Wheat “Hereward”; [9]): 60%; Post-emergence herbicidal activity against cereal crops, percentage phytotoxicity, Winter Wheat “Hereward” (Winter Wheat “Hereward”; [10]): 28%; Post-emergence herbicidal activity against cereal crops, percentage phytotoxicity, Spring Wheat “Teal” (Spring Wheat “Teal”; [7]): 13%; Post-emergence herbicidal activity against cereal crops, percentage phytotoxicity, Spring Wheat “Teal” (Spring Wheat “Teal”; [8]): 20%; Post-emergence herbicidal activity against cereal crops, percentage phytotoxicity, Spring Wheat “Teal” (Spring Wheat “Teal”; [9]): 75%; Post-emergence herbicidal activity against cereal crops, percentage phytotoxicity, Spring Wheat “Teal” (Spring Wheat “Teal”; [10]): 50%; Post-emergence herbicidal activity against cereal crops, percentage phytotoxicity, Spring Barley “Harrington” [1, 7]: 13%; Post-emergence herbicidal activity against cereal crops, percentage phytotoxicity, Spring Barley “Harrington” [1, 8]: 55%; Post-emergence herbicidal activity against cereal crops, percentage phytotoxicity, Spring Barley “Harrington” [1, 9]: 95%; Post-emergence herbicidal activity against cereal crops, percentage phytotoxicity, Spring Barley “Harrington” [1, 10]: 85%
Cc1cc(C)c(C2C(=O)CC(CCNC(=O)c3ccc(Br)cn3)C2=O)c(C)c1 (racemic) [Compound A120, 5-bromo-N-{2-[2,4-dioxo-3-(2,4,6-trimethylphenyl)cyclopentyl]ethyl}pyridine-2-carboxamide] | 18 | 55 | 30 | 38 | 68 | 50 | 25 | 78 | 38 | 100 | 100 | 90 | 70 | Percentage Phytotoxicity Spring Wheat “Freya” (Spring Wheat “Freya”; [11]): 30%; Percentage Phytotoxicity Winter Wheat “Hereward” (Winter Wheat “Hereward”; [11]): 50%; Percentage Phytotoxicity Spring Barley “Harrington” [1, 11]: 38%
